Like-named read-outs stand apart in the source and are kept apart here.

The target in the experiment is T1, mTLR9 (Mus musculus, UniProt Q9EQU3).
T1 construct: Splenocytes isolated from male C57/BL6 mice; from tissue; host or cells: splenocytes from the spleen of male C57BL/6 mice
T1 sequence (Q9EQU3 26-1032): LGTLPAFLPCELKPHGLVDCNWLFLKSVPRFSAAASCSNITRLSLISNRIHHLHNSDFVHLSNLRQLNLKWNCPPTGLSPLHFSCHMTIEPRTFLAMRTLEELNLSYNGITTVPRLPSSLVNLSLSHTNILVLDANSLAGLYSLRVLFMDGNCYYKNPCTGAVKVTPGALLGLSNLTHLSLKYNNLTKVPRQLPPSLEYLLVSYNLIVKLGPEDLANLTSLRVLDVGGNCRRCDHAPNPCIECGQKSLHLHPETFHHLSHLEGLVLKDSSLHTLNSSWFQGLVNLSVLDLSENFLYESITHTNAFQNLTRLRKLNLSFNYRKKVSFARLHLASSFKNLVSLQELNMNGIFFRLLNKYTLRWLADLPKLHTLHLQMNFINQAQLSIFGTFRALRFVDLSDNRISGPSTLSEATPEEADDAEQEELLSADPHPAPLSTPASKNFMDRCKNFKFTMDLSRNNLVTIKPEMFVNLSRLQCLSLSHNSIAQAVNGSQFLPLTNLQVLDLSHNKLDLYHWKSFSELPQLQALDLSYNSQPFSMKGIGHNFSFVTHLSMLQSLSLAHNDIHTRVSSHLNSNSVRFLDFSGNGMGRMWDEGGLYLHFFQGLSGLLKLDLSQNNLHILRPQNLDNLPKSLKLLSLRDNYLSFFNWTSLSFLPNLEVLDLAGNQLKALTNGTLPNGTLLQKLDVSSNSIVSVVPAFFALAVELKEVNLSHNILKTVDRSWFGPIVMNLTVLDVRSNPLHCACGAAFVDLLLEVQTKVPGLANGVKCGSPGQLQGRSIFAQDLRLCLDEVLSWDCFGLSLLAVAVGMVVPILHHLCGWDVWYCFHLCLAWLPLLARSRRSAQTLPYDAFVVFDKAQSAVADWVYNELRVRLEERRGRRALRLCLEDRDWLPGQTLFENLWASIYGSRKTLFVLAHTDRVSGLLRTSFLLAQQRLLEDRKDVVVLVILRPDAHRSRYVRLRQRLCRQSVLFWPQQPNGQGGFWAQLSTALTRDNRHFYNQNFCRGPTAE
The experiment is described as follows: mTLR9 antagonism (IL-6 and TNF-α release assay) in mouse splenocytes, CpG ODN-2006 stimulated. Type of experiment: cell-based. The following applies: 1 μM, mouse splenocytes. From the text:
mTLR9 and mTLR7 Antagonism (Cytokine Release Assay) in Mouse Splenocytes
TLR7 ligand R0006 (IDT, 5′-rU*rU*rG*rU*rU*rG*rU*rU*rG*rU*rU*rG*rU*rU*rG*rU*rU*rG*rU*rU-3′ (SEQ ID NO:1)), Liposomal transfection reagent—DOTAP (Roche, Cat. No. 11202375001), TLR9 ligand CpG ODN2006 (Sequence: T*C*G*T*C*G*T*T*T*T*G*T*C*G*T*T*T*T*G*T*C*G*T*T; *=phosphorothioate (SEQ ID NO:2)) DMSO (Sigma, D2650), RPMI Powder (Sigma, R6504), Fetal Bovine Serum (Gibco, 10270), Dulbecco's Phosphate Buffered Saline (Sigma, D1408), 96 well plate (Flat bottom, Costar 3599), ELISA kit for IL-6 (EBioscience, 88-7064-77 and TNFa (EBioscience, 88-7346-88), MACS Buffer (AutoMACS Rinsing Solution (Miltenyl Biotec, 130-091-222)+0.05% BSA), RBC lysis buffer (0.85% NH4Cl), 40 μm cell strainer (BD Falcon, 352340) Method: A. Isolation of Mouse Splenocytes
Mouse spleen was isolated from C57BL6 mouse and stored in 1× chilled PBS buffer until further processed. Spleen was transferred to a sterile petriplate and chopped in to 5-6 pieces in presence of MACS buffer (100 μl) with the help of fresh surgical blade and crushed with flat plunger of a sterile syringe. A uniform suspension was prepared by passing cells through a 40 μm cell strainer. Cells were centrifuged at 450×g for 5 minutes at 4° C., supernatant was discarded and pellet dislodged gently, resuspended in 2 ml of pre-warmed (37° C.) RBC lysis buffer at room temperature with continuous gentle mixing with 1 ml pipette. Lysis buffer was neutralized with 12 ml of chilled MACS buffer and cells were passed through 40 μm cell strainer. Cell suspension was collected in 15 ml MACS buffer and centrifuged at 450×g for 5 minutes at 4° C. Pellet was resuspended in 15 ml MACS buffer and centrifuged at 400×g for 5 minutes. Cells were resuspended in 10 ml of RPMI complete medium and viability was estimated by Trypan blue method.
mTLR9 Antagonism (IL-6 and TNF-α Release Assay):
500 μM stock of CpG ODN-2006 was prepared in sterile, endotoxin-free water. Dilutions of 10× concentrations of NCEs were prepared in incomplete RPMI media, maintaining a final DMSO concentration of 0.3%. NCEs were added in a concentration range of 30 μM to 1 nM in respective wells of assay plate, assay medium containing 0.3% DMSO were added to control wells. 0.2 million splenocytes were added to all the wells and incubated at 37° C. in 5% CO2 incubator for 30 minutes. 1 μg/ml of respective agonist was added to all the wells except those were assigned as negative controls and mixed thoroughly. Incomplete RPMI was added to negative control wells and incubated overnight at 37° C./5% CO2. The plate was centrifuged at 450×g for 5 minutes at room temperature and the supernatant was collected. ELISA was performed as per manufacturer's protocol. S/B Ratio, % Activity and % Inhibition was calculated using MS Excel. IC50 and inhibition curve was generated using Graph Pad Prism.

The mark [1] stands for this setting: TNF-α release, read-out: mTLR9 inhibitory activity (% at 1 μM), TNF-α.
Setting [2] is: IL-6 release, read-out: mTLR9 inhibitory activity (% at 1 μM), IL-6.

Take `Cc1nc(-c2ccc(N3CCN(C(C)C)CC3)cc2)c2cc(CN3CCOCC3)[nH]c2c1C` [Example A36, 4-[[4-[4-(4-isopropylpiperazin-1-yl)phenyl]-6,7-dimethyl-1H-pyrrolo[3,2-c]pyridin-2-yl]methyl] morpholine]: the inhibition at 1 µM under setting [1] turned out to be 100%.

Consider `Cc1nc(-c2ccc(N3CCN(C)CC3)cc2)c2cc(CN3CCOCC3)[nH]c2c1C` [Example A37, 4-[[6,7-dimethyl-4-[4-(4-methylpiperazin-1-yl)phenyl]-1H-pyrrolo[3,2-c]pyridin-2-yl]methyl] morpholine], for which the inhibition at 1 µM under setting [1] was found to be 100%.

`CCN1CCN(c2ccc(-c3nc(C)c(C)c4[nH]c(CN5CCOCC5)cc34)cc2)CC1` [Example A38, 4-[[4-[4-(4-ethylpiperazin-1-yl)phenyl]-6,7-dimethyl-1H-pyrrolo[3,2-c]pyridin-2-yl]methyl] morpholine]: the inhibition at 1 µM under setting [2] is 100% and the inhibition at 1 µM under setting [1] worked out at 100%.

In the case of `Cc1nc(-c2ccc(N3CCN(C(C)C)CC3)cc2)c2cc(CN3CCCCC3)[nH]c2c1C` [Example A39, 4-[4-(4-isopropylpiperazin-1-yl)phenyl]-6,7-dimethyl-2-(1-piperidylmethyl)-1H-pyrrolo[3,2-c]pyridine], under setting [1], the inhibition at 1 µM is 100%.

Regarding `Cc1nc(-c2ccc(N3CCN(C(C)C)CC3)cc2)c2cc(CN3CCCC3)[nH]c2c1C` [Example A40, 4-[4-(4-isopropylpiperazin-1-yl)phenyl]-6,7-dimethyl 2-(pyrrolidin-1-ylmethyl)-1H-pyrrolo[3,2-c)pyridine], the inhibition at 1 µM under setting [1] was 100%.

`c1cc2[nH]c(CN3CCOCC3)cc2c(-c2ccc(N3CCNCC3)cc2)n1` [Example A42, 4-[[4-(4-(piperazin-1-yl)phenyl)-1H-pyrrolo[3,2-c]pyridin-2-yl]methyl] morpholine]: the inhibition at 1 µM under setting [2] was 84% and the inhibition at 1 µM under setting [1] was found to be 41%.

Consider `c1cc2[nH]c(CN3CCOCC3)cc2c(-c2ccc(OC3CCNCC3)cc2)n1` [Example A49, 4-[[4-[4-(4-piperidyloxy)phenyl]-1H-pyrrolo[3,2-c]pyridin-2-yl]methyl]morpholine], for which the inhibition at 1 µM was determined as 65% under setting [2] and 15% under setting [1].

Regarding `Cc1cc2[nH]c(CN3CCOCC3)cc2c(-c2ccc(C3CCN(C(C)C)CC3)cc2)n1` [Example A51, 4-[[4-[4-(1-isopropyl-4-piperidyl)phenyl]-6-methyl-1H-pyrrolo[3,2-c]pyridin-2-yl]methyl]morpholine], the inhibition at 1 µM by setting is: under setting [2], 100%; under setting [1], 90%.

As for `CC(C)N1CC=C(c2ccc(-c3nccc4[nH]c(CN5CCOCC5)cc34)cn2)CC1` [Example A52, 4-[[4-[6-(1-isopropyl-3,6-dihydro-2H-pyridin-4-yl)-3-pyridyl]-1H-pyrrolo[3,2-c]pyridin-2-yl]methyl]morpholine], the inhibition at 1 µM turned out to be 100% under setting [2] and 29% under setting [1].

For `CC(C)N1CCN(c2ccc(-c3nccc4[nH]c(CN5CCOCC5)cc34)cn2)CC1` [Example A53, 4-[[4-[6-(4-isopropylpiperazin-1-yl)-3-pyridyl]-1H-pyrrolo[3,2-c]pyridin-2-yl]methyl]morpholine], the inhibition at 1 µM runs as follows: under setting [2], 100%; under setting [1], 80%.

`CC(C)N1CCC(n2cc(-c3nccc4[nH]c(CN5CCOCC5)cc34)cn2)CC1` [Example A54, 4-[[4-[1-(1-isopropyl-4-piperidyl)pyrazol-4-yl]-1H-pyrrolo[3,2-c]pyridin-2-yl]methyl]morpholine]: the inhibition at 1 µM under setting [1] turned out to be 0%.

With `CC(C)N1CCN(Cc2ccc(-c3nccc4[nH]c(CN5CCOCC5)cc34)cc2)CC1` [Example A55, 4-[[4-[4-[(4-isopropylpiperazin-1-yl)methyl]phenyl]-1H-pyrrolo[3,2-c]pyridin-2-yl]methyl]morpholine], the inhibition at 1 µM under setting [2] came to 96% and the inhibition at 1 µM under setting [1] worked out at 59%.

As to `CC(C)N1CCC(Oc2ccc(-c3nccc4[nH]c(CN5CCOCC5)cc34)cc2)CC1` [Example A56, 4-[[4-[4-[(1-isopropyl-4-piperidyl)oxy]phenyl]-1H-pyrrolo[3,2-c]pyridin-2-yl]methyl]morpholine], the inhibition at 1 µM under setting [1] was determined as 71%.

As for `CC(C)N1CCN(c2cccc(-c3nccc4[nH]c(CN5CCOCC5)cc34)c2)CC1` [Example A57, 4-[[4-[3-(4-isopropylpiperazin-1-yl)phenyl]-1H-pyrrolo[3,2-c]pyridin-2-yl]methyl]morpholine], the inhibition at 1 µM is, setting by setting: under setting [2], 100%; under setting [1], 34%.

Consider `CN1CCN(Cc2ccc(-c3nccc4[nH]c(CN5CCOCC5)cc34)cc2)CC1` [Example A60, 4-[[4-[4-[(4-methylpiperazin-1-yl)methyl]phenyl]-1H-pyrrolo[3,2-c]pyridin-2-yl]methyl]morpholine], for which the inhibition at 1 µM stood at 0% under setting [2] and 38% under setting [1].

In the case of `CN1CCN(c2cccc(-c3nccc4[nH]c(CN5CCOCC5)cc34)c2)CC1` [Example A61, 4-[[4-[3-(4-methylpiperazin-1-yl)phenyl]-1H-pyrrolo[3,2-c]pyridin-2-yl]methyl]morpholine], the inhibition at 1 µM is, setting by setting: under setting [2], 100%; under setting [1], 45%.

For `CN1CCC(Oc2ccc(-c3nccc4[nH]c(CN5CCOCC5)cc34)cc2)CC1` [Example A62, 4-[[4-[4-[(1-methyl-4-piperidyl)oxy]phenyl]-1H-pyrrolo[3,2-c]pyridin-2-yl]methyl]morpholine], the inhibition at 1 µM under setting [1] was 79%.

With `CN1CCC(n2cc(-c3nccc4[nH]c(CN5CCOCC5)cc34)cn2)CC1` [Example A63, 4-[[4-[1-(1-methyl-4-piperidyl)pyrazol-4-yl]-1H-pyrrolo[3,2-c]pyridin-2-yl]methyl]morpholine], under setting [1], the inhibition at 1 µM was determined as 0%.

With `CC(C)N1CCC(c2ccc(-c3nccc4[nH]c(CN5CCOCC5)cc34)cn2)CC1` [Example A64, 4-[[4-[6-(1-isopropyl-4-piperidyl)-3-pyridyl]-1H-pyrrolo[3,2-c]pyridin-2-yl]methyl]morpholine], the inhibition at 1 µM came out at 25% under setting [2] and 0% under setting [1].

With `CC(C)N1CCC(c2ccc(-c3nccc4[nH]c(CN5CCOCC5)cc34)cc2)CC1` [Example A70, 4-[[4-[4-(1-isopropyl-4-piperidyl)phenyl]-1H-pyrrolo[3,2-c]pyridin-2-yl]methyl]morpholine], the inhibition at 1 µM turned out to be 95% under setting [2] and 52% under setting [1].

The record behind these values is patent publication US9643967B2, “Pyrrolo[3,2-c]pyridine derivatives as TLR inhibitors” (TAKEDA PHARMACEUTICAL COMPANY LIMITED, priority 2013, dated 2017).
